The values that follow come from patent US20100056606A1, “Combination therapy using budesonide and antisense oligonucleotide targeted to IL4-receptor alpha” (ISIS Pharmaceuticals, Inc., priority 2005, published 2010).

The conditions of data set [1]: mouse, in vivo.
Data set [2] relates to OVA sensitized mice. Nature of the data set: Ovalbumin induced allergic inflammation, acute model (AHR/Penh, BAL eosinophils). The conditions noted are these: for % Eosinophils (BAL) / Penh (100 mg/mL methacholine): day 28. The format is in vivo, mouse. The method, then:
In the mouse model of allergic inflammation, mice are sensitized and challenged with aerosolized chicken ovalbumin (OVA). Airway responsiveness is assessed by inducing airflow obstruction using a noninvasive method whereby unrestrained conscious OVA sensitized mice are placed into the main chamber of a plethysmograph (Buxco Electronics, Inc. Troy, N.Y.) and challenged with aerosolized methacholine. Pressure difference between this chamber and a reference chamber is used to extrapolate minute volume, breathing frequency and enhanced pause (Penh). Penh is a dimensionless parameter that is a function of total pulmonary airflow (i.e. the sum of the airflow in the upper and lower respiratory tracts) during the respiratory cycle of a mouse and is […] when airflow is greater. This parameter closely correlates with lung resistance as measured by traditional, invasive techniques using ventilated animals (Hamelmann et al., 1997, Am. J. Respir. Crit. Care Med. 156:766-775).
The mouse model of allergic inflammation was used to test the efficacy of an inhaled antisense oligonucleotide targeted to mouse IL-4R alpha. A mismatched IL-4R alpha oligonucleotide (mismatch control oligonucleotide) was used as a negative control. Male Balb/c mice 8-10 weeks old (Charles River Laboratory, Taconic Farms, N.Y.) were maintained in micro-isolator cages housed in a specific pathogen free (SPF) facility. The sentinel cages within the animal colony surveyed negative for viral antibodies and the presence of known mouse pathogens.
For the acute model of allergic inflammation, mice were sensitized with 20 μg of alum-precipitated OVA was injected intraperitoneally on days 0 and 14. On days 24, 25 and 26, animals were exposed for 20 minutes to 1% OVA (in saline) by ultrasonic nebulization. On days 17, 19, 21, 24 and 26 animals were dosed with vehicle alone (saline), 1 μg/kg or 10 μg/kg of ISIS 231894 or the mismatch control oligonucleotide. Oligonucleotides or vehicle were suspended in 0.9% sodium chloride and delivered via inhalation using a nose-only aerosol delivery exposure system. A Lovelace nebulizer set at a flow rate of 1.4 liter per minute feeding into a total flow rate of 10 liters per minute was used to deliver the oligonucleotide. The exposure chamber was equilibrated with an oligonucleotide aerosol solution for 5 minutes before mice were placed in a restraint tube attached to the chamber. Restrained mice were treated for a total of 10 minutes. Analysis was performed on day 28.
Dendritic cells, eosinophils, macrophages and epithelial cells recovered from collagenase digested lung were analyzed for expression of IL-4R alpha protein by flow cytometry. […] A second experiment, in which mice were dosed with 10 μg/kg ISIS 231894, confirmed the efficacy of ISIS 231894 to decrease AHR and eosinophilia in the acute model.

The test system of data set [3] is mouse IL-4R alpha RNA. Nature of the data set: Antisense inhibition of mouse IL-4R alpha mRNA in b.END cells, real-time PCR. In kind it is cell-based. To be noted: 24 hours. The protocol:
The mouse brain endothelial cell line b.END was obtained from Dr. Werner Risau at the Max Plank Institute (Bad Nauheim, Germany). b.END cells were routinely cultured in DMEM, high glucose (Invitrogen Life Technologies, Carlsbad, Calif.) supplemented with 10% fetal bovine serum (Invitrogen Life Technologies, Carlsbad, Calif.). Cells were routinely passaged by trypsinization and dilution when they reached approximately 90% confluence. Cells were seeded into 96-well plates (Falcon-Primaria #353872, BD Biosciences, Bedford, Mass.) at a density of approximately 3000 cells/well for use in oligomeric compound transfection experiments.
When cells reach appropriate confluency, they are treated with oligonucleotide using Lipofectin™ as described. When cells reached 65-75% confluency, they were treated with oligonucleotide. Oligonucleotide was mixed with LIPOFECTIN™ Invitrogen Life Technologies, Carlsbad, Calif.) in Opti-MEM™-1 reduced serum medium (Invitrogen Life Technologies, Carlsbad, Calif.) to achieve the desired concentration of oligonucleotide and a LIPOFECTIN™ concentration of 2.5 or 3 […] oligonucleotide. This transfection mixture was incubated at room temperature for approximately 0.5 hours. For cells grown in 96-well plates, wells were washed once with 100 μL OPTI-MEM™-1 and then treated with 130 μL of the transfection mixture. Cells grown in 24-well plates or other standard tissue culture plates are treated similarly, using appropriate volumes of medium and oligonucleotide. Cells are treated and data are obtained in duplicate or triplicate. After approximately 4-7 hours of treatment at 37° C., the medium containing the transfection mixture was replaced with fresh culture medium. Cells were harvested 16-24 hours after oligonucleotide treatment.
Quantitation of IL-4R alpha mRNA levels was accomplished by real-time quantitative PCR using the ABI PRISM™ 7600, 7700, or 7900 Sequence Detection System (PE-Applied Biosystems, Foster City, Calif.) according to manufacturer's instructions.
Prior to quantitative PCR analysis, primer-probe sets specific to the target gene being measured were evaluated for their ability to be “multiplexed” with a GAPDH amplification reaction. After isolation the RNA is subjected to sequential reverse transcriptase (RT) reaction and real-time PCR, both of which are performed in the same well. RT and PCR reagents were obtained from Invitrogen Life Technologies (Carlsbad, Calif.). […] The RT reaction was carried out by incubation for 30 minutes at 48° C. Following a 10 minute incubation at 95° C. to activate the PLATINUM® Taq, 40 cycles of a two-step PCR protocol were carried out: 95° C. for 15 seconds (denaturation) followed by 60° C. for 1.5 minutes (annealing/extension).
Gene target quantities obtained by RT, real-time PCR were normalized using either the expression level of GAPDH, a gene whose expression is constant, or by quantifying total RNA using RiboGreen™ (Molecular Probes, Inc. Eugene, Oreg.). GAPDH expression was quantified by RT, real-time PCR, by being run simultaneously with the target, multiplexing, or separately. Total RNA was quantified using RiboGreen™ RNA quantification reagent (Molecular Probes, Inc. Eugene, Oreg.).
Probes and primers for use in real-time PCR were designed to hybridize to target-specific sequences. The target-specific PCR probes have FAM covalently linked to the 5′ end and TAMRA or MGB covalently linked to the 3′ end, where FAM is the fluorescent dye and TAMRA or MGB is the quencher dye.
A series of oligomeric compounds was designed to target different regions of mouse IL-4R alpha RNA, using SEQ ID NO: 5. All compounds are chimeric oligonucleotides (“gapmers”) 20 nucleotides in length, composed of a central “gap” region consisting of ten 2′-deoxynucleotides, which is flanked on both sides (5′ and 3′) by five-nucleotide “wings”. The wings are composed of 2′-O-(2-methoxyethyl) nucleotides, also known as 2′-MOE nucleotides. […]

In the case of “ISIS 231894: lead antisense oligonucleotide targeted to mouse IL-4R alpha; CCGCTGTTCTCAGGTGACAT; SEQ ID NO: 24; 2'-MOE gapmer, phosphorothioate (all phosphorothioate, sugars by position and methylation of C not given here; 2'-MOE gapmer)”, the “half life in the lung” value in data set [1] is 48 to 96 h. The “eosinophil infiltration in BAL fluid, in words” value in data set [2] is listed as “significant decrease”. Moreover, the “pulmonary function: lung resistance and compliance, in words” value in data set [2] is “Significant improvement”. Also, the “% Eosinophils (BAL)” value in data set [2] (1 μg/kg inhaled) and in data set [2] (10 μg/kg inhaled) was 35% in each case. Besides, the “Penh (100 mg/mL methacholine)” value in data set [2] (1 μg/kg inhaled) was 6; in data set [2] (10 μg/kg inhaled) it was 4.5. Also, the “methacholine-induced AHR (Penh, whole body plethysmography), in words” value in data set [2] (1 and 10 μg/kg inhaled) is “significant, dose dependent suppression”. For the same substance, the “IL-4R alpha mRNA” value in data set [3] (1 nM) was 100 % of untreated control; in data set [3] (5 nM) it was 55 % of untreated control; in data set [3] (10 nM), 41 % of untreated control; in data set [3] (25 nM), 35 % of untreated control; in data set [3] (50 nM) it was 20 % of untreated control; in data set [3] (100 nM) it was 20 % of untreated control. In addition, the “mouse IL-4R alpha mRNA reduction (in words)” value in data set [3] (compared to mismatch control) is given as “dose-dependent mouse IL-4R alpha mRNA reduction”.
